Experimental data: patent US12194177B2, “Systems and methods for delivering chlorine dioxide using a liquid curtain” (Sabre IP Acquistionco, LLC, priority 2019, dated 2025)

Experiments:
[1] = Chlorine dioxide retention in liquid treatment solution, low-pressure spray application method; assay type: physicochemical; settings: for Average ClO2 loss in ppm (±STDEV): location A minus location C; for Average ClO2 concentration in ppm (±STDEV): spray, ambient 65-70 °F
Text: (§1) In this example, two methods for applying a liquid chlorine dioxide treatment solution were compared with a chlorine dioxide treatment solution having the same volume and initial chlorine dioxide concentration, and using a system with the same delivery rate. One method was a curtain delivery method and the other method was a low-pressure spray method.
(§2) For both the methods a 330-gallon tote was used as the source fluid reservoir. The tote was filled with about 75 gallons of fresh water and also contained submersible sump-pump that provided the fluid flow to the system. A 6.6 gallon per minute (GPM) rotameter was in line between the pump and the chlorine dioxide delivery system that delivered a concentrated solution of chlorine dioxide (˜1700 ppm) so as to make a liquid chlorine dioxide treatment solution containing an initial concentration (approximately 5 ppm) of chlorine dioxide. The delivery system sat over an aluminum sheet on a slight gradient, to provide a homogenous flow pathway of the treatment solution. The aluminum sheet allowed the treatment fluid to cascade back into the tote for recirculation. During experimentation, the rotameter was set to allow for approximately 4 GPM ([…]) of constant flow, achieved by slight pinching of a ball valve in line and downstream of the rotameter. The treatment solution was circulated through the system for a few minutes and if needed, additional concentrated solution was added to achieve the initial concentration (approximately 5 ppm chlorine dioxide) in the treatment solution before experimental runs commenced.
For the spray application, a series of nozzles were used to apply the treatment solution.
(§3) Each application method was tested in multiple runs in which the liquid chlorine dioxide treatment solution was maintained at a particular target temperature (approximately 120° F. (this is the high temperature curtain or spray as referred to in Table 3) or a temperature of 60-75° F. (this is the low temperature curtain or spray as referred to in Table 3)).
(§4) For the curtain application method, the fluid was sampled at four locations: (A) from the hose that delivered treatment solution into the trough, (B) where the fluid entered the trough (C) within the trough near the exit where fluid flowed out of the trough to form the curtain, (D) where the fluid of the curtain fell onto the belt. For the spray application, the fluid was sampled at three locations: (A) from the hose that delivered treatment solution into the sprayer nozzle, (B) from the fluid as it exited the sprayer nozzle, (C) where the fluid of the spray fell onto the belt.
(§5) Chlorine dioxide concentrations were determined using the Palintest ChlordioX Plus device in accordance with the manufacturer's instructions.

[2] = Chlorine dioxide retention in liquid treatment solution, curtain application method; assay type: physicochemical; settings: for Average ClO2 loss in ppm (±STDEV): location A minus location D; for Average ClO2 concentration in ppm (±STDEV): curtain, ambient 65-70 °F
Text: as §1, §2
For the curtain application, a rain gutter was modified to serve as a trough for the fluid to fill into. The front wall of the trough was modified; it was slightly shorter and was rounded to achieve laminar or predominantly laminar flow of the fluid over the wall of the trough and down over the target belt (belt to be used for moving eggs or other products to be treated with the treatment solution). The trough also contained pieces of plastics filter media (a type of baffle) that converted the turbulent flow of the trough being filled to more homogenous, laminar flow allowing a sheer curtain or waterfall effect to be achieved consistently across the entire length of the trough, such that the curtain fell onto the target belt. […] The curtain was about 11″ in height and approximately 2-2.5 feet wide.
as §3, §4, §5

SMILES: [O][Cl+][O-] [ClO2, chlorine dioxide]
- Average ClO2 loss in ppm (±STDEV) ([1]; Spray with high temperature (approximately 120 °F)): 3.24 ± 0.67 ppm
- Average ClO2 loss in ppm (±STDEV) ([1]; Spray with low temperature (60-75 °F)): 1.44 ± 0.38 ppm
- Average ClO2 concentration in ppm (±STDEV) ([1]; treatment fluid 60-70 °F, location A (hose delivering treatment solution into sprayer nozzle)): 4.86 ± 0.54 ppm
- Average ClO2 concentration in ppm (±STDEV) ([1]; treatment fluid 60-70 °F, location B (fluid as it exited the sprayer nozzle)): 4.34 ± 0.71 ppm
- Average ClO2 concentration in ppm (±STDEV) ([1]; treatment fluid 60-70 °F, location C (where spray fell onto the belt)): 3.43 ± 0.61 ppm
- Average ClO2 concentration in ppm (±STDEV) ([1]; treatment fluid 110-120 °F, location A (hose delivering treatment solution into sprayer nozzle)): 5.28 ± 0.58 ppm
- Average ClO2 concentration in ppm (±STDEV) ([1]; treatment fluid 110-120 °F, location B (fluid as it exited the sprayer nozzle)): 3.57 ± 0.53 ppm
- Average ClO2 concentration in ppm (±STDEV) ([1]; treatment fluid 110-120 °F, location C (where spray fell onto the belt)): 2.04 ± 0.45 ppm
- Average ClO2 loss in ppm (±STDEV) ([2]; Curtain with high temperature (approximately 120 °F)): 1.95 ± 0.58 ppm
- Average ClO2 loss in ppm (±STDEV) ([2]; Curtain with low temperature (60-75 °F)): 1.37 ± 0.27 ppm
- Average ClO2 concentration in ppm (±STDEV) ([2]; treatment fluid 65-75 °F, location A (hose delivering treatment solution into trough)): 4.88 ± 0.87 ppm
- Average ClO2 concentration in ppm (±STDEV) ([2]; treatment fluid 65-75 °F, location B (where fluid entered the trough)): 4.91 ± 0.83 ppm
- Average ClO2 concentration in ppm (±STDEV) ([2]; treatment fluid 65-75 °F, location C (within trough near the exit)): 4.39 ± 0.79 ppm
- Average ClO2 concentration in ppm (±STDEV) ([2]; treatment fluid 65-75 °F, location D (where curtain fell onto the belt)): 3.51 ± 0.68 ppm
- Average ClO2 concentration in ppm (±STDEV) ([2]; treatment fluid 110-120 °F, location A (hose delivering treatment solution into trough)): 5.28 ± 0.59 ppm
- Average ClO2 concentration in ppm (±STDEV) ([2]; treatment fluid 110-120 °F, location B (where fluid entered the trough)): 4.70 ± 0.28 ppm
- Average ClO2 concentration in ppm (±STDEV) ([2]; treatment fluid 110-120 °F, location C (within trough near the exit)): 4.51 ± 0.52 ppm
- Average ClO2 concentration in ppm (±STDEV) ([2]; treatment fluid 110-120 °F, location D (where curtain fell onto the belt)): 3.34 ± 0.58 ppm
